Laboratory results: patent US11986471B2, “Compounds and methods of use” (Tango Therapeutics, Inc., priority 2018, dated 2024)

How the values were obtained:
Type in all cases: biochemical
PRMT5 [1] = biological target: T1, PRMT5 (Homo sapiens, UniProt O14744); test: PRMT5 IC50 assay with no cofactor
T1 construct: purchased Viva (custom protein)
Excerpt: (§1) Table 1a indicates IC50 values (μM) against PRMT5 for exemplary compounds in the presence of SAM as cofactor, with no cofactor and with MTA as cofactor, respectively (columns 3-5). […] The Ki values can be calculated from the IC50 values as described in the Examples section. As detailed in the Examples section, for the assay performed in the presence of SAM, IC50=Ki×1.5 (Ki=IC50/1.5). For the assay performed in the presence of MTA, IC50=Ki×13.5 (Ki=IC50/13.5). Column 6 indicates the ratio between the Ki of compounds in the presence of SAM and the Ki of compounds in the presence of MTA

PRMT5 [2] = biological target: T1, PRMT5; test: PRMT5 IC50 assay in the presence of SAM as cofactor
Excerpt: as §1

PRMT5 [3] = biological target: T1, PRMT5; test: PRMT5 IC50 assay in the presence of MTA as cofactor; details: for IC50: PRMT5, MTA as cofactor
Excerpt: as §1

[4] = ratio between Ki in the presence of SAM and Ki in the presence of MTA
[5] = ratio between the Ki in the presence of SAM and the Ki in the presence of MTA

T1 sequence (O14744 whole entry): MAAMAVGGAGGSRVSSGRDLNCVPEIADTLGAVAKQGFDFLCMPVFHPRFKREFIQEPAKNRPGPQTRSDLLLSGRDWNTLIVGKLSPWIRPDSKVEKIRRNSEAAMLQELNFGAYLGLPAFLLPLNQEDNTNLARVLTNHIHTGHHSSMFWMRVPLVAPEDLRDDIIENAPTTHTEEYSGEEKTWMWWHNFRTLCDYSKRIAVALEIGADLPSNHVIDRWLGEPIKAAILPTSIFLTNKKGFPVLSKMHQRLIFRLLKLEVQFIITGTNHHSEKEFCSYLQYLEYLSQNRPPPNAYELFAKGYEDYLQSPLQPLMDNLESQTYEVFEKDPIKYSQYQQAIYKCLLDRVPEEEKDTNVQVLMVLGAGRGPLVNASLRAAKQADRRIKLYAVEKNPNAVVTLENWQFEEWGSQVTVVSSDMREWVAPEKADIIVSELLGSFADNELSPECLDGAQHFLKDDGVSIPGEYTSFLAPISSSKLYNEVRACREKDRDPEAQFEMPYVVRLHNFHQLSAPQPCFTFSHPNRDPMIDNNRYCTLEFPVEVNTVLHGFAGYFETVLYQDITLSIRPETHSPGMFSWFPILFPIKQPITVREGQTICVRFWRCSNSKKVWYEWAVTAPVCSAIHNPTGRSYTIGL
T1 sequence (Q9BQA1 whole entry partner): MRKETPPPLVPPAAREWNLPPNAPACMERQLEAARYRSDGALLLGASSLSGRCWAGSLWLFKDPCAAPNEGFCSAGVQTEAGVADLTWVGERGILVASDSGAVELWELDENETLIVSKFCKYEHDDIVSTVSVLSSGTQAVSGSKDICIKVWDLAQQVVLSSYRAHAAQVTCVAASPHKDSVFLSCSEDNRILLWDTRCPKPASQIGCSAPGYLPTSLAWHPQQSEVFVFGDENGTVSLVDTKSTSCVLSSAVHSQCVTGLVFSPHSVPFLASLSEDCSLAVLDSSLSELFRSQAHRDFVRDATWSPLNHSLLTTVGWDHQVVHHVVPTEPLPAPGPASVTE

Structure (SMILES)	IC50 (PRMT5 [1]; read-out: No Co-factor IC50) [nM]	IC50 (PRMT5 [2]) [nM]	IC50 (PRMT5 [3]) [nM]	SAM/MTA Ratio (PRMT5 [3]; [4])	IC50 (PRMT5 [1]) [nM]	SAM/MTA Ratio (PRMT5 [3]; [5])
CC(=O)N1CCC(Nc2cc(C(=O)NC[C@H](O)CN3CCc4cc(OCc5ocnc5C)ccc4C3)cc(C(C)C)n2)CC1 [Compound 646, (S)-2-((1-acetylpiperidin-4-yl)amino)-N-(2-hydroxy-3-(6-((4-methyloxazol-5-yl)methoxy)-3,4-dihydroisoquinolin-2(1H)-yl)propyl)-6-isopropylisonicotinamide]	500 to 5000	50 to 500	< 50	A (a Ki ratio greater than or equal to 10 fold between the Ki in the presence of SAM and the Ki in the presence of MTA)	–	–
Cc1c(OCc2cnco2)ccc2c1CCN(C[C@@H](O)CNC(=O)c1cc(NC3CCOCC3)ccn1)C2 [Compound 573, N-[(2S)-2-hydroxy-3-{5-methyl-6-[(1,3-oxazol-5-yl)methoxy]-1,2,3,4-tetrahydroisoquinolin-2-yl}propyl]-4-[(oxan-4-yl)amino]pyridine-2-carboxamide]	–	500 to 5000	500 to 5000	–	≥ 5000	A (a Ki ratio greater than or equal to 10 fold between the Ki in the presence of SAM and the Ki in the presence of MTA)
Cc1c(OCc2cnco2)cc(F)c2c1CCN(C[C@H](O)CNC(=O)c1ccnc(NC3CCC3)c1)C2 [Compound 332, 2-(cyclobutylamino)-N-[(2R)-3-[8-fluoro-5-methyl-6-(oxazol-5-ylmethoxy)-3,4-dihydro-1H-isoquinolin-2-yl]-2-hydroxy-propyl]pyridine-4-carboxamide]	≥ 5000	500 to 5000	500 to 5000	A (a Ki ratio greater than or equal to 10 fold between the Ki in the presence of SAM and the Ki in the presence of MTA)	–	–
CC(=O)N1CCC(Nc2cccc(C(=O)NC[C@H](O)CN3CCc4c(ccc(OCc5cnco5)c4C)C3)c2)C1 (stereo partly drawn) [Compound 525, 3-[(1-acetylpyrrolidin-3-yl)amino]-N-[(2S)-2-hydroxy-3-{5-methyl-6-[(1,3-oxazol-5-yl)methoxy]-1,2,3,4-tetrahydroisoquinolin-2-yl}propyl]benzamide]	–	500 to 5000	500 to 5000	–	≥ 5000	A (a Ki ratio greater than or equal to 10 fold between the Ki in the presence of SAM and the Ki in the presence of MTA)
O=C(NC[C@H](O)CN1CCc2c(ccc(OCc3cnn[nH]3)c2Cl)C1)c1ccnc(NC2CCC2)c1 [Compound 269, N-[(2S)-3-[5-chloro-6-(1H-triazol-5-ylmethoxy)-3,4-dihydro-1H-isoquinolin-2-yl]-2-hydroxy-propyl]-2-(cyclobutylamino)pyridine-4-carboxamide]	≥ 5000	500 to 5000	500 to 5000	A (a Ki ratio greater than or equal to 10 fold between the Ki in the presence of SAM and the Ki in the presence of MTA)	–	–
CC(=O)N1[C@@H]2CC[C@H]1C[C@@H](Nc1cc(C(=O)NC[C@H](O)CN3CCc4cc(OCc5ocnc5C)ccc4C3)ncn1)C2 [Compound 630, 6-{[(1R,3R,5S)-8-acetyl-8-azabicyclo[3.2.1]octan-3-yl]amino}-N-[(2S)-2-hydroxy-3-{6-[(4-methyl-1,3-oxazol-5-yl)methoxy]-1,2,3,4-tetrahydroisoquinolin-2-yl}propyl]pyrimidine-4-carboxamide]	≥ 5000	500 to 5000	50 to 500	A (a Ki ratio greater than or equal to 10 fold between the Ki in the presence of SAM and the Ki in the presence of MTA)	–	–
CC(=O)N1CC2CC1CC2Nc1cc(C(=O)NC[C@H](O)CN2CCc3cc(OCc4ocnc4C)ccc3C2)ncn1 (stereo partly drawn) [Compound 632, 6-({2-acetyl-2-azabicyclo[2.2.1]heptan-5-yl}amino)-N-[(2S)-2-hydroxy-3-{6-[(4-methyl-1,3-oxazol-5-yl)methoxy]-1,2,3,4-tetrahydroisoquinolin-2-yl}propyl]pyrimidine-4-carboxamide]	≥ 5000	50 to 500	50 to 500	A (a Ki ratio greater than or equal to 10 fold between the Ki in the presence of SAM and the Ki in the presence of MTA)	–	–
O=C(NC[C@H](O)CN1CCc2cc(OCc3cnco3)ccc2C1)c1cc(NC2CCC2)ncn1 [Compound 538, (S)-6-(cyclobutylamino)-N-(2-hydroxy-3-(6-(oxazol-5-ylmethoxy)-3,4-dihydroisoquinolin-2(1H)-yl)propyl)pyrimidine-4-carboxamide]	–	500 to 5000	50 to 500	–	≥ 5000	A (a Ki ratio greater than or equal to 10 fold between the Ki in the presence of SAM and the Ki in the presence of MTA)
CC(=O)N1CC(Nc2cc(C(=O)NCC(O)CN3CCc4nc(OCc5ocnc5C)ccc4C3)nc(N3CCCCC3)n2)C1 (stereo not drawn) [Compound 650]	500 to 5000	50 to 500	50 to 500	A (a Ki ratio greater than or equal to 10 fold between the Ki in the presence of SAM and the Ki in the presence of MTA)	–	–
O=C(NC[C@H](O)CN1CCc2cc(OCc3cn[nH]c3)cc(F)c2C1)c1ccnc(NC2CCC2)c1 [Compound 596, 2-(cyclobutylamino)-N-[(2S)-3-[8-fluoro-6-(1H-pyrazol-4-ylmethoxy)-3,4-dihydro-1H-isoquinolin-2-yl]-2-hydroxy-propyl]pyridine-4-carboxamide]	–	500 to 5000	50 to 500	–	500 to 5000	A (a Ki ratio greater than or equal to 10 fold between the Ki in the presence of SAM and the Ki in the presence of MTA)
O[C@@H](CNc1nccc(-c2sccc2Br)n1)CN1CCc2cc(OCc3cnco3)ccc2C1 [Compound 331, (S)-1-((4-(3-bromothiophen-2-yl)pyrimidin-2-yl)amino)-3-(6-(oxazol-5-ylmethoxy)-3,4-dihydroisoquinolin-2(1H)-yl)propan-2-ol]	500 to 5000	500 to 5000	500 to 5000	A (a Ki ratio greater than or equal to 10 fold between the Ki in the presence of SAM and the Ki in the presence of MTA)	–	–
CC(=O)N1CCC(Nc2cc(C(=O)NC[C@H](O)CN3CCc4c(C)c(OCc5ocnc5C)cc(F)c4C3)cc(N3CCCCC3)n2)CC1 [Compound 653]	≥ 5000	500 to 5000	500 to 5000	A (a Ki ratio greater than or equal to 10 fold between the Ki in the presence of SAM and the Ki in the presence of MTA)	–	–
COCC(=O)N1CC(Nc2cc(C(=O)NC[C@H](O)CN3CCc4c(ccc(OCc5cnco5)c4C)C3)ncn2)C1 [Compound 518, N-[(2S)-2-hydroxy-3-{5-methyl-6-[(1,3-oxazol-5-yl)methoxy]-1,2,3,4-tetrahydroisoquinolin-2-yl}propyl]-6-{[1-(2-methoxyacetyl)azetidin-3-yl]amino}pyrimidine-4-carboxamide]	–	500 to 5000	500 to 5000	–	≥ 5000	A (a Ki ratio greater than or equal to 10 fold between the Ki in the presence of SAM and the Ki in the presence of MTA)
Cc1c(OCc2cnco2)ccc2c1CCN(C[C@@H](O)CNC(=O)c1ccnc(NC34CC(C3)C4)c1)C2 [Compound 514, (S)-2-(bicyclo[1.1.1]pentan-1-ylamino)-N-(2-hydroxy-3-(5-methyl-6-(oxazol-5-ylmethoxy)-3N-dihydroisoquinolin-2(1H)-yl)propyl)isonicotinamide]	–	500 to 5000	500 to 5000	–	≥ 5000	A (a Ki ratio greater than or equal to 10 fold between the Ki in the presence of SAM and the Ki in the presence of MTA)
Cc1c(OCc2cnco2)ccc2c1CCN(C[C@@H](O)CNC(=O)c1ccnc(N[C@H]3C[C@H](CO)C3)c1)C2 [Compound 537, N—((S)-2-hydroxy-3-(5-methyl-6-(oxazol-5-ylmethoxy)-3N-dihydroisoquinolin-2(1H)-yl)propyl)-2-(((1r,3S)-3-(hydroxymethyl)cyclobutyl)amino)isonicotinamide]	–	500 to 5000	50 to 500	–	≥ 5000	A (a Ki ratio greater than or equal to 10 fold between the Ki in the presence of SAM and the Ki in the presence of MTA)
CO[C@H]1C[C@@H](Nc2cc(C(=O)NC[C@H](O)CN3CCc4c(ccc(OCc5cnco5)c4C)C3)ccn2)C1 [Compound 535]	–	500 to 5000	50 to 500	–	≥ 5000	A (a Ki ratio greater than or equal to 10 fold between the Ki in the presence of SAM and the Ki in the presence of MTA)
CC(=O)N1CC(Nc2cc(C(=O)NCC(O)CN3CCc4c(C)c(OCc5ocnc5C)cc(F)c4C3)nc(N3CCCCC3)n2)C1 (stereo not drawn) [Compound 651]	500 to 5000	50 to 500	50 to 500	A (a Ki ratio greater than or equal to 10 fold between the Ki in the presence of SAM and the Ki in the presence of MTA)	–	–
Cc1ncoc1COc1ccc2c(c1)CCN(C[C@@H](O)CNC(=O)c1ccnc(NC3CCN(C)C(=O)C3)c1)C2 (stereo partly drawn) [Compound 627]	≥ 5000	50 to 500	50 to 500	A (a Ki ratio greater than or equal to 10 fold between the Ki in the presence of SAM and the Ki in the presence of MTA)	–	–
CC(=O)N1CC(Nc2cc(C(=O)NCC(O)CN3CCc4cc(OCc5ocnc5C)ccc4C3)nc(N3CCCCC3)c2)C1 (stereo not drawn) [Compound 580]	–	–	–	–	500 to 5000	–
CC(=O)N1CCC(Nc2cc(C(=O)NCC(O)CN3CCc4nc(OCc5ocnc5C)ccc4C3)cc(N3CCCCC3)n2)CC1 (stereo not drawn) [Compound 654]	500 to 5000	–	50 to 500	–	–	–
